Drawing on PubChem BioAssay AID1117319 (Southern Research Institute, 2015), this text covers IC50 for 99 molecules.

Inconclusive results are not listed. Bounds are passed on as bounds.

The target of the assay is Virion infectivity factor (Human immunodeficiency virus type 1 group M subtype B (isolate BH10)) + Virion infectivity factor (Human immunodeficiency virus type 1 group M subtype B (isolate BRU/LAI)) + Virion infectivity factor (Human immunodeficiency virus type 1 group M subtype B (isolate PCV12)) + Virion infectivity factor (Human immunodeficiency virus type 1 group M subtype B (isolate HXB2)) + DNA dC->dU-editing enzyme APOBEC-3G (Homo sapiens) (UniProt P69720+P69721+P69722+P69723+Q9HC16). Description: inhibitors of Vif binding to APOBEC3G peptide, primary screen, biochemical, TR-FRET, GST-Vif 1-94, biotin-A3G peptide, dose response retest (AID 1117319;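 further: Vif residues 1-94 fused to GST binding biotinylated APOBEC3G peptide 110-148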). (In TR-FRET formats the signal depends on donor and acceptor labels being close together.)
By IC50 is commonly meant the midpoint of a concentration-inhibition curve. In the case of `N=C1S/C(=C\c2ccco2)C(=O)N1c1ccc2c(c1)OCO2`, the IC50 is 9.26 µM.

`COc1ccc(OC)c(S(=O)(=O)Nc2ccc(O)c3ccccc23)c1`: the IC50 was 8.62 µM.

`O=C(/C=C/c1ccco1)c1cccnc1`: the IC50 was 14.1 µM.

As for `C=C(C)C(=O)Nc1ccc2c(c1)OCCOCCOCCO2`, the IC50 was 1.89 µM.

For `CCCC(=O)NC1=C(Cl)C(=O)c2ccccc2C1=O`, the 50% inhibitory concentration (IC50) is 13.1 µM.

Take `Cc1ccc(CNC(=O)COc2ccc3c(c2)CCC3)cc1`: the IC50 was 44.6 µM.

Regarding `COc1ccc(NC(=O)CN(C)C(=O)c2cc(-c3ccco3)nc3ccccc23)cc1`, the IC50 is 4.87 µM.

As for `CC1Cc2ccccc2N1Cc1cc(=O)n2ccsc2n1` (centres undefined), the IC50 was 7.03 µM.

For `Cc1ccc(C(=O)C2=C(O)C(=O)N(c3ncccn3)C2c2ccc(F)cc2)o1` (centres undefined), the IC50 is 21.8 µM.

For the molecule `Cc1cc(C(=O)CSc2nnnn2-c2ccccc2)c(C)n1CC1CCCO1` (centres undefined), the IC50 is 9.78 µM.

Consider `NNc1ccc([N+](=O)[O-])c2[nH][nH]c(=O)c12`, for which the IC50 is 1.93 µM.

In the case of `COc1ccc(OC)c(NC(=O)CCN2CCC(C)CC2)c1`, the IC50 is 25.4 µM.

Turning to `COC(=O)c1ccccc1NC(=O)CCS(=O)(=O)c1ccc(Br)cc1`, the IC50 was 1.49 µM.

With `CCOC(=O)c1ccc(CC(=O)c2ccc(O)c(O)c2O)o1`, the IC50 was 11.5 µM.

For the molecule `COc1cccc2c1NC(C(=O)O)C1CC=CC21` (centres undefined), the IC50 was less than 0.398 µM.

For the molecule `Nc1ccccc1NC1=CC(=O)CC(c2ccco2)C1` (centres undefined), the IC50 was 49.4 µM.

For the molecule `Cc1ccc([C@@H]2C3COCC=C3C(C#N)=C(N)C2(C#N)C#N)o1` (some centres undefined), the IC50 is 10.3 µM.

Regarding `CC(C)c1ccc(S(=O)(=O)/N=C2/C=CC(=O)c3ccccc32)cc1`, the IC50 was 5.36 µM.

For the molecule `COC(=O)C1=C(C)N(Cc2ccccc2)C(=O)/C1=C\c1ccco1`, the IC50 was 11.2 µM.

For `COc1cc(OC)c2c(c1O)OC(c1ccccc1)CC2=O` (centres undefined), the IC50 is 4.82 µM.

Turning to `Cc1ccc(C)n1-c1sccc1C(=O)O`, the IC50 is 1.92 µM.

On to `Cn1cccc1C(=O)NC(=O)COC(=O)CC12CC3CC(CC(Br)(C3)C1)C2`, for which the IC50 was 58.5 µM.

Regarding `Cc1oc(-c2ccc(Cl)cc2)cc1-c1nn2c(-c3ccoc3C)nnc2s1`, the IC50 is 1.04 µM.

On to `COc1ccccc1NCCC(=O)OCC(=O)NCc1ccco1`, for which the IC50 was 13.9 µM.

In the case of `Cc1c(Br)c(O)c(Br)c2sc(=O)oc12`, the IC50 is 1.77 µM.

Consider `CCc1nc2oc3cc(OC)ccc3c(=O)c2c(=O)n1Cc1ccco1`, for which the IC50 is 39.4 µM.

Regarding `O=C(O)CCC(=O)N(Cc1cccs1)Cc1cccs1`, the IC50 was 79.6 µM.

Consider `COc1cc(C(=O)OCCN2CCCCC2)ccc1O`, for which the IC50 is 45.4 µM.

As to `O=C1S/C(=C\C=C\c2ccco2)C(=O)N1c1ccc(O)cc1`, the IC50 was 0.69 µM.

Regarding `O=C(Cc1cc(=O)[nH][nH]1)N/N=C/C=C/c1ccccc1`, the IC50 is 26.4 µM.

Turning to `O=C(c1cc(-c2ccco2)on1)N1CCN(c2ccccc2)CC1`, the IC50 was 31.2 µM.

Consider `O=C1CC=C2C3CC4N(CCC45c4cc(O)c(O)cc4N1C25)CC3=CCBr` (centres undefined), for which the IC50 is 0.7 µM.

For `CN(C)c1ccc(NC(=O)Cn2cc3c(n2)CCCC3)cc1`, the IC50 was 6.08 µM.

Take `COc1ccccc1NC(=O)c1cc2ccccc2o/c1=N\O`: the IC50 was 67.4 µM.

As to `CN(C)c1ncc(C2=C(Cl)C(=O)C(N3CCCC3)=C(Cl)C2=O)s1`, the half-inhibitory concentration (IC50) is 0.38 µM.

As for `CCc1ccc(CC)c(S(=O)(=O)Nc2ccc(C(=O)O)c(O)c2)c1`, the IC50 is 35.3 µM.

Turning to `O=C(NN(C(=O)c1ccccc1)c1ccccc1)c1ccccc1`, the IC50 is 70.7 µM.

Turning to `COc1cc(NC(=O)c2cc3nc(C)cc(C)n3n2)c(OC)cc1Cl`, the IC50 is 92.1 µM.

As for `O=C(N/N=C/C=C/c1ccco1)c1cccs1`, the IC50 was 7.15 µM.

In the case of `O=C1NC(=Nc2ccc(O)cc2)S/C1=C\C=C\c1ccco1`, the IC50 is 5.1 µM.

For the molecule `COc1ccc(Nc2ccc(OC)cc2)cc1`, the IC50 is 6.72 µM.

As to `O=C1CCCC/C1=C/Nc1ccc2c(c1)OCO2`, the IC50 was 5.94 µM.

With `O=C(NC1=CC(=O)c2ccccc2C1=O)c1ccccc1`, the IC50 was 20.7 µM.

`COC(=O)c1ccc(COc2ccc(/C=N/Nc3cccc(C(=O)O)c3)cc2)cc1`: the IC50 was 63.2 µM.

As to `CCOC(=O)C1CCN(C(c2cccs2)c2sc3nc(C)nn3c2O)CC1` (centres undefined), the IC50 is 55.7 µM.

On to `CC(C)CCNC(=O)Cn1c2c(c(-c3ccccc3Cl)cc1=O)CCC2`, for which the IC50 was 19.7 µM.

With `CC1=NN(c2cccc(C(=O)O)c2)C(=O)/C1=C\C=C\c1ccco1`, the IC50 is 2.89 µM.

Consider `O=C(c1cccc(-n2cccc2)c1)N1CCN(S(=O)(=O)c2ccccc2)CC1`, for which the half-inhibitory concentration (IC50) was 17.3 µM.

As for `CN1CCc2c(sc3c2c(NCc2ccco2)nc2nnnn23)C1`, the IC50 is 16.2 µM.

In the case of `CCCC(=Nc1ccc(N)cc1)C1=C(O)C(C(=O)OC)C(C)(C)CC1=O` (centres undefined), the IC50 was 2.76 µM.

In the case of `C/C(=N\Nc1ccc([N+](=O)[O-])cc1[N+](=O)[O-])c1cc2c(ccc3ccccc32)oc1=O`, the IC50 was 2.92 µM.

As to `Clc1ccc(/C=N/c2c(-c3ccco3)nc3ccccn23)cc1`, the IC50 is 14.1 µM.

Regarding `COc1cccc(CNC(=O)CCNS(=O)(=O)c2cccs2)c1`, the IC50 was 1.44 µM.

Turning to `COc1ccc(NCc2nc3ccccc3n2CCOc2ccccc2)cc1`, the IC50 is 49 µM.

Consider `CCc1ccccc1NC(=O)c1cccc(NC(=O)/C=C/c2ccco2)c1`, for which the IC50 was 10.8 µM.

Take `O=C(CN1CCN(S(=O)(=O)c2ccc(Cl)s2)CC1)NCc1ccc(Cl)cc1`: the IC50 is 7.67 µM.

Regarding `O=C1C=C(N2CC2)c2ccccc2C1=O`, the IC50 was 11.3 µM.

Consider `CCOC(=O)c1cc2cc(F)ccc2nc1C`, for which the IC50 is 1.65 µM.

As for `O=C(O)c1c2c(nc3ccc(Cl)cc13)CCC2`, the IC50 is 23.4 µM.

With `COC(=O)CCC(=O)OC1(C)C(=O)C2=CN(CCCOC(C)C)C(c3ccc(OC)cc3)=CC2=C(Br)C1=O` (centres undefined), the IC50 is 11.5 µM.

In the case of `O=[N+]([O-])c1cc(CN2CCOCC2)c2cccnc2c1O`, the IC50 was 4.07 µM.

Regarding `O=[N+]([O-])c1c(NCCCO)cc(SCc2ccco2)c2nonc12`, the IC50 was 4.65 µM.

On to `COc1cc(CNCCc2ccc(F)cc2)ccc1OCc1ccc(Cl)nc1`, for which the half-maximal inhibitory concentration (IC50) was 3.18 µM.

On to `N#Cc1ccccc1CN1C(=O)S/C(=C/c2cccn2-c2cccc(C(=O)O)c2)C1=O`, for which the IC50 is 18.5 µM.

For the molecule `CC(=O)NCc1c(Cl)cccc1-n1cccc1`, the IC50 was 72.7 µM.

For `CCN(C(=O)CN1CCN(c2ccc(O)cc2)CC1)c1c(N)n(Cc2ccccc2)c(=O)[nH]c1=O`, the IC50 was 16.4 µM.

In the case of `O=C(c1ccc2nc(-c3ccco3)c(-c3ccco3)nc2c1)N1CCN(c2ncccn2)CC1`, the IC50 was 1.03 µM.

For `Cc1cc(C(=O)CCl)c(C)n1-c1c(C)n(C)n(-c2ccccc2)c1=O`, the IC50 is 42.8 µM.

As to `N#CC1=C(N)OC2=C(CCC/C2=C/c2ccoc2)C1c1ccoc1` (centres undefined), the IC50 was 2.64 µM.

Take `CN(C)c1ccc(NC(=O)CSc2nc3ccccc3c(=O)n2C2CCCCC2)cc1`: the IC50 was 21.7 µM.

As to `CC(=O)OCCCNc1cc(Sc2nc3ccccc3s2)c2nonc2c1[N+](=O)[O-]`, the IC50 was 53.1 µM.

Turning to `Oc1ccc(/C=N/N=C/c2ccc(O)c(O)c2)cc1O`, the IC50 was 4.82 µM.

On to `CC(C)N1C(=O)/C(=C/C=C/c2ccco2)C(=O)N(Cc2ccco2)C1=O`, for which the IC50 was 2.19 µM.

Turning to `COc1ccc2cc(C3C(C#N)=C(N)OC(C)=C3C(C)=O)c(Cl)nc2c1` (centres undefined), the IC50 is 19.4 µM.

Consider `CC(=O)c1ccc2c(c1)C1C=CCC1C(C(=O)O)N2` (centres undefined), for which the IC50 is 0.6 µM.

Turning to `CC(Cc1c[nH]c2ccccc12)C(=O)NCc1ccco1` (centres undefined), the IC50 is 33 µM.

In the case of `Cc1cccc(NC(=O)CNC(=O)c2cccc(-n3cccc3)c2)c1C`, the IC50 is 12.2 µM.

As to `COc1cc(NC(=O)c2noc3c2CCC3)c(OC)cc1Cl`, the IC50 is 15.8 µM.

For the molecule `O=C(O)C1=NN(c2cc(Cl)c(S(=O)(=O)O)cc2Cl)C(=O)C1`, the 50% inhibitory concentration (IC50) is 85.7 µM.

Take `O=C1NC(=O)N(Cc2ccco2)C(=O)/C1=C/C=C/c1ccco1`: the IC50 was 0.91 µM.

`CCC(C)Cn1c(O)cc2nn(-c3nc4ccccc4s3)c(=O)c-2c1C` (centres undefined): the IC50 was 2.65 µM.

As for `O=c1cc(O)n(-c2ccc(F)cc2)c(=S)[nH]1`, the IC50 is 51.5 µM.

Turning to `CCCCC1=CC2=CC(=O)C(C)(OC(=O)C3CCCC3)C(=O)C2=CO1` (centres undefined), the IC50 was 15.2 µM.

With `CCCOc1ccc(N)cc1N`, the 50% inhibitory concentration (IC50) is 7.66 µM.

For `O=C(O)C1Cc2ccccc2N2CCCC12` (centres undefined), the IC50 was 15.2 µM.

Consider `COC(=O)C1C(O)C(C)C(O)C(C)(O)/C=C\C=C(/C)C(=O)Nc2c(C)c(OC(C)=O)c3c(c2O)C(=O)C(C)=C2OCOC(=C23)/C(C)=C/C(C)(O)C(O)C(C)C1O` (centres undefined), for which the IC50 is 13.6 µM.

For `O=c1c(O)cccc2cc(O)c(O)c(O)c12`, the 50% inhibitory concentration (IC50) was 1.03 µM.

`CCOC(=O)Cn1nnnc1C(C(C)C)N(Cc1cc2c(C)cc(C)cc2[nH]c1=O)C1CCCC1` (centres undefined): the IC50 is 46 µM.

On to `O=c1oc2c3c4c(cc2s1)CCCN4CCC3`, for which the IC50 was 9.54 µM.

Take `CCN(CC)c1ccc(N=Cc2c(O)n(CCc3ccc(OC)c(OC)c3)c(=O)[nH]c2=O)cc1`: the IC50 was 44.1 µM.

Regarding `COc1ccc(NC2CS(=O)(=O)CC2NCc2ccco2)cc1` (centres undefined), the IC50 is 62.7 µM.

For the molecule `COc1ccc(N2C3=C(CC4=C2CCCC4=O)C(=O)CCC3)cc1`, the IC50 is 26.3 µM.

Take `CNc1ccc(Br)cc(C(=O)/C=C/c2cc(OC)ccc2OC)c1=O`: the IC50 is 3.6 µM.

Take `CCC(C)NC(=O)Cc1cn(C)c2ccccc12` (centres undefined): the IC50 was 87.5 µM.

Take `O=C(NNC(=O)c1ccccc1O)c1cc2ccccc2o1`: the IC50 is 16.5 µM.

In the case of `NC(=O)c1ccc(N2CCN(c3ccc(O)cc3)CC2)c([N+](=O)[O-])c1`, the IC50 was 7.08 µM.

As for `CC(=O)c1ccc(S(=O)(=O)Nc2cccc(-n3cnnn3)c2)cc1`, the IC50 is 12.1 µM.

`NS(=O)(=O)c1ccc(CCNC(=O)CCS(=O)(=O)c2ccc(Br)cc2)cc1`: the IC50 was 25 µM.

As to `NS(=O)(=O)c1ccc(N=Nc2c[nH]c(=O)c(O)c2)cc1`, the IC50 was 4.08 µM.
